# ChEMBL document CHEMBL1275492, “In vitro activity of ceftobiprole against pathogens from two phase 3 clinical trials of complicated skin and skin structure infections” (2008)
# Assays:
# Assay type in all cases: functional
# [1] = system: Providencia stuartii; assay: Antibacterial activity against Providencia stuartii obtained from complicated skin and skin structure infections by agar dilution method
# [2] = system: Pseudomonas fluorescens; assay: Antibacterial activity against Pseudomonas fluorescens obtained from complicated skin and skin structure infections by agar dilution method
# [3] = system: Klebsiella oxytoca; assay: Antibacterial activity against Klebsiella oxytoca obtained from complicated skin and skin structure infections by agar dilution method
# [4] = system: Citrobacter braakii; assay: Antibacterial activity against Citrobacter braakii obtained from complicated skin and skin structure infections by agar dilution method
# [5] = system: Stenotrophomonas maltophilia; assay: Antibacterial activity against Stenotrophomonas maltophilia obtained from complicated skin and skin structure infections by agar dilution method
# [6] = system: Acinetobacter baumannii; assay: Antibacterial activity against Acinetobacter baumannii obtained from complicated skin and skin structure infections by agar dilution method
# [7] = system: Klebsiella aerogenes; assay: Antibacterial activity against Enterobacter aerogenes obtained from complicated skin and skin structure infections by agar dilution method
# [8] = system: Proteus mirabilis; assay: Antibacterial activity against Proteus mirabilis obtained from complicated skin and skin structure infections by agar dilution method
# [9] = system: Pseudomonas aeruginosa; assay: Antibacterial activity against Pseudomonas aeruginosa obtained from complicated skin and skin structure infections by agar dilution method
# [10] = system: Enterobacter amnigenus; assay: Antibacterial activity against Enterobacter amnigenus obtained from complicated skin and skin structure infections by agar dilution method; conditions: Lelliottia amnigena
# [11] = system: Escherichia coli; assay: Antibacterial activity against Escherichia coli obtained from complicated skin and skin structure infections by agar dilution method
# [12] = system: Klebsiella pneumoniae; assay: Antibacterial activity against Klebsiella pneumoniae obtained from complicated skin and skin structure infections by agar dilution method
# [13] = system: Citrobacter freundii; assay: Antibacterial activity against Citrobacter freundii obtained from complicated skin and skin structure infections by agar dilution method
# [14] = system: Salmonella; assay: Antibacterial activity against Salmonella spp. obtained from complicated skin and skin structure infections by agar dilution method
# [15] = system: Serratia marcescens; assay: Antibacterial activity against Serratia marcescens obtained from complicated skin and skin structure infections by agar dilution method
# [16] = system: Morganella morganii; assay: Antibacterial activity against Morganella morganii obtained from complicated skin and skin structure infections by agar dilution method
# [17] = system: Proteus penneri; assay: Antibacterial activity against Proteus penneri obtained from complicated skin and skin structure infections by agar dilution method
# [18] = system: Proteus vulgaris; assay: Antibacterial activity against Proteus vulgaris obtained from complicated skin and skin structure infections by agar dilution method
# [19] = system: Enterobacter cloacae; assay: Antibacterial activity against Enterobacter cloacae obtained from complicated skin and skin structure infections by agar dilution method
SMILES,MIC50 [1] [µg/mL],MIC90 [1] [µg/mL],MIC50 [2] [µg/mL],MIC90 [2] [µg/mL],MIC50 [3] [µg/mL],MIC90 [3] [µg/mL],MIC50 [4] [µg/mL],MIC90 [4] [µg/mL],MIC50 [5] [µg/mL],MIC90 [5] [µg/mL],MIC50 [6] [µg/mL],MIC90 [6] [µg/mL],MIC50 [7] [µg/mL],MIC90 [7] [µg/mL],MIC50 [8] [µg/mL],MIC90 [8] [µg/mL],MIC50 [9] [µg/mL],MIC90 [9] [µg/mL],MIC50 [10] [µg/mL],MIC90 [10] [µg/mL],also measured
CO/N=C(\C(=O)N[C@@H]1C(=O)N2C(C(=O)[O-])=C(C[N+]3(C)CCCC3)CS[C@H]12)c1csc(N)n1,0.06,4,> 16,32,0.06,4,0.06,4,> 16,32,> 16,32,0.06,4,0.06,1,4,64,0.06,4,MIC50 [11]: 0.03 µg/mL; MIC90 [11]: 0.12 µg/mL; MIC50 [12]: ≤ 0.12 µg/mL; MIC90 [12]: 1 µg/mL; MIC50 [13]: 0.06 µg/mL; MIC90 [13]: 4 µg/mL; MIC50 [14]: 0.06 µg/mL; MIC90 [14]: 4 µg/mL; MIC50 [15]: 0.06 µg/mL; MIC90 [15]: 4 µg/mL; MIC50 [16]: 0.03 µg/mL; MIC90 [16]: > 64 µg/mL; MIC50 [17]: 0.06 µg/mL; MIC90 [17]: 4 µg/mL; MIC50 [18]: 0.06 µg/mL; MIC90 [18]: 4 µg/mL
NCC[C@H](O)C(=O)N[C@@H]1C[C@H](N)[C@@H](O[C@H]2O[C@H](CN)[C@@H](O)[C@H](O)[C@H]2O)[C@H](O)[C@H]1O[C@H]1O[C@H](CO)[C@@H](O)[C@H](N)[C@H]1O [AMIKACIN],2,8,16,> 128,2,8,2,8,16,> 128,16,> 128,2,8,4,16,8,64,2,8,MIC50 [19]: 2 µg/mL; MIC90 [19]: 8 µg/mL; MIC50 [11]: 2 µg/mL; MIC90 [11]: 4 µg/mL; MIC [12]: 1 µg/mL; MIC50 [12]: 1 µg/mL; MIC90 [12]: 64 µg/mL; MIC50 [13]: 2 µg/mL; MIC90 [13]: 8 µg/mL; MIC50 [14]: 2 µg/mL; MIC90 [14]: 8 µg/mL; MIC50 [15]: 2 µg/mL; MIC90 [15]: 8 µg/mL; MIC50 [16]: 2 µg/mL; MIC90 [16]: 4 µg/mL; MIC50 [17]: 2 µg/mL; MIC90 [17]: 8 µg/mL; MIC50 [18]: 2 µg/mL; MIC90 [18]: 8 µg/mL
CO/N=C(\C(=O)N[C@@H]1C(=O)N2C(C(=O)O)=C(CSc3nc(=O)c(O)nn3C)CS[C@H]12)c1csc(N)n1 [CEFTRIAXONE],0.06,64,> 32,> 128,0.06,64,0.06,64,> 32,> 128,> 32,> 128,0.06,64,≤ 0.015,4,64,> 128,0.06,64,MIC50 [19]: ≤ 0.25 µg/mL; MIC90 [19]: 64 µg/mL; MIC50 [11]: 0.06 µg/mL; MIC90 [11]: 0.25 µg/mL; MIC50 [12]: 0.12 µg/mL; MIC90 [12]: 64 µg/mL; MIC50 [13]: 0.06 µg/mL; MIC90 [13]: 64 µg/mL; MIC50 [14]: 0.06 µg/mL; MIC90 [14]: 64 µg/mL; MIC50 [15]: 0.06 µg/mL; MIC90 [15]: 64 µg/mL; MIC50 [16]: 0.03 µg/mL; MIC90 [16]: > 128 µg/mL; MIC50 [17]: 0.06 µg/mL; MIC90 [17]: 64 µg/mL; MIC50 [18]: 0.06 µg/mL; MIC90 [18]: 64 µg/mL
